Source: US9868746B2, “Substituted 5-aminothieno[2,3-C]pyridazine-6-carboxamide analogs as positive allosteric modulators of the muscarinic acetylcholine receptor M4” (Vanderbilt University, priority 2012, dated 2018)
Blank lines part the entries; values can stand above or below the compound they belong to.

Experiments:
[1] = tested on: Alzheimer's disease patients; conditions: cited from earlier work
animal models = conditions: cited from earlier work
[2] = hepatotoxicity of AChE inhibitors such as tacrine; cited from earlier work
mAChR M4 = molecular target: T1, mAChR M4 (Homo sapiens, UniProt P08173); test: mAChR M4 cell-based functional assay (calcium mobilization, potentiation of EC20 acetylcholine response); conditions: for Emax at 30 µM: % ACh maximum at 30 μM; for EC50: mAChR M4 cell-based functional assay, >10,000 estimated for low potency compounds without plateau, read-out: EC50
T1 construct: expressed in transfected cells; host or cells: CHO-K1 cells stably transfected with M4 cDNA and chimeric G-protein Gqi5
T1 sequence (P08173 1-479): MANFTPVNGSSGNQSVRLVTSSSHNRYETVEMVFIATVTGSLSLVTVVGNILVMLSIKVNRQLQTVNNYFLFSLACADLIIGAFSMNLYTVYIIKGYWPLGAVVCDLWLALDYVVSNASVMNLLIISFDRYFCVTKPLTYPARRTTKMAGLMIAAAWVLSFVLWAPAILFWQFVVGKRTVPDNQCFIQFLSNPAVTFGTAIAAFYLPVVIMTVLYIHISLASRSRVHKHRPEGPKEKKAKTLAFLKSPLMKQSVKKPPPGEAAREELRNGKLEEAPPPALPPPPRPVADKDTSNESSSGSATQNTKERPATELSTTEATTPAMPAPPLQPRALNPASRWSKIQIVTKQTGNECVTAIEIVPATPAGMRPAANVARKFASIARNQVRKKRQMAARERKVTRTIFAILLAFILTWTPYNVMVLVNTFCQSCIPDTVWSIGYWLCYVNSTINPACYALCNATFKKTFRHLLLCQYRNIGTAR

SMILES: CCCCCCOc1nsnc1C1=CCCN(C)C1 [xanomeline]
psychotic behavioral symptoms such as delusions, suspiciousness, vocal outbursts, and hallucinations ([1]; Bodick 1997): reduce psychotic behavioral symptoms
treatment induced side effects [1]: gastrointestinal effects
catalepsy in animal models (animal models; in vivo): without causing catalepsy
activity in animal models with similar profiles to known antipsychotic drugs (animal models; muscarinic agonist, Bymaster 1998, 1999, Shannon 1999, 2000): active in animal models

SMILES: Nc1c2c(nc3ccccc13)CCCC2 [tacrine]
elevated liver transaminases observed in patients [2]: about 30 % of patients

Emax at 30 µM (mAChR M4): 53%
EC50 (mAChR M4): 970 nM
SMILES: Cc1nnc2sc(C(=O)N3CC(NC(=O)CCc4ccccc4)C3)c(N)c2c1C [Example B177]

Emax at 30 µM (mAChR M4): 43%
EC50 (mAChR M4): 4300 nM
SMILES: COC1(CCC2OCCCO2)CN(C(=O)c2sc3nnc(C)c(C)c3c2N)C1 [Example B298]
